Results from ChEMBL document CHEMBL4665778, “Discovery of Potent and Selective PI3Kγ Inhibitors” (J Med Chem, 2020).

Assays:
[1] = target: PI3-kinase p110-alpha/p85-alpha (Homo sapiens, UniProt P42336)
Description: Inhibition of recombinant N-terminal FLAG-tagged full-length human PI3K p110alpha/human p85alpha co- expressed in Sf9 insect cells using phosphatidylinositol 4,5-bisphosphate as substrate preincubated for 60 mins followed by substrate addition and measured after 1 hr in presence of ATP by ADP-Glo lipid kinase assay

[2] = target: T1, Phosphatidylinositol 4,5-bisphosphate 3-kinase catalytic subunit gamma isoform (Homo sapiens, UniProt P48736)
Description: Inhibition of recombinant N-terminal His-tagged full-length human PI3K p120gamma expressed in Sf9 insect cells using phosphatidylinositol 4,5-bisphosphate as substrate preincubated for 60 mins followed by substrate addition and measured after 1 hr in presence of ATP by ADP-Glo lipid kinase assay

[3] = target: PI3-kinase p110-delta/p85-alpha (Homo sapiens, UniProt O00329)
Description: Inhibition of recombinant N-terminal GST-tagged full-length human PI3K p110delta/p85alpha co- expressed in Sf9 insect cells using phosphatidylinositol 4,5-bisphosphate as substrate preincubated for 60 mins followed by substrate addition and measured after 1 hr in presence of ATP by ADP-Glo lipid kinase assay

[4] = target: T1, Phosphatidylinositol 4,5-bisphosphate 3-kinase catalytic subunit gamma isoform; remark: listed apart in the source
Description: Inhibition of PI3Kgamma in human THP-1 cells assessed as reduction in Akt phosphorylation at S473 residue incubated for 60 mins by alphalisa assay

[5] = Intrinsic clearance in human hepatocytes assessed per 10^6 cells at 0.5 uM by LC-MS/MS analysis; format: ADME, cell-based, Hepatocyte; conditions: read-out: CLH
[6] = Intrinsic clearance rat hepatocytes assessed per 10^6 cells by LC-MS/MS analysis; format: ADME, tissue-based, Hepatocyte; conditions: read-out: CLH
[7] = Clearance in Sprague-Dawley rat at 0.25 mg/kg, iv by LC-MS/MS analysis; format: ADME, organism-based; conditions: in vivo
[8] = Volume of distribution at steady state in Sprague-Dawley rat at 0.25 mg/kg, iv by LC-MS/MS analysis; format: ADME, organism-based; conditions: in vivo, read-out: Vdss
Homo sapiens = organism: Homo sapiens; assay: Selectivity index, ratio of IC50 for N-terminal FLAG-tagged full-length human PI3K p110beta/human p85alpha to IC50 for recombinant N-terminal His-tagged full-length human PI3K p120gamma
PI3K p110 beta/p85 alpha = PI3K p110 beta/p85 alpha (Homo sapiens, UniProt P42338)
PI3K p110 beta/p85 alpha, sequence (P27986 whole entry): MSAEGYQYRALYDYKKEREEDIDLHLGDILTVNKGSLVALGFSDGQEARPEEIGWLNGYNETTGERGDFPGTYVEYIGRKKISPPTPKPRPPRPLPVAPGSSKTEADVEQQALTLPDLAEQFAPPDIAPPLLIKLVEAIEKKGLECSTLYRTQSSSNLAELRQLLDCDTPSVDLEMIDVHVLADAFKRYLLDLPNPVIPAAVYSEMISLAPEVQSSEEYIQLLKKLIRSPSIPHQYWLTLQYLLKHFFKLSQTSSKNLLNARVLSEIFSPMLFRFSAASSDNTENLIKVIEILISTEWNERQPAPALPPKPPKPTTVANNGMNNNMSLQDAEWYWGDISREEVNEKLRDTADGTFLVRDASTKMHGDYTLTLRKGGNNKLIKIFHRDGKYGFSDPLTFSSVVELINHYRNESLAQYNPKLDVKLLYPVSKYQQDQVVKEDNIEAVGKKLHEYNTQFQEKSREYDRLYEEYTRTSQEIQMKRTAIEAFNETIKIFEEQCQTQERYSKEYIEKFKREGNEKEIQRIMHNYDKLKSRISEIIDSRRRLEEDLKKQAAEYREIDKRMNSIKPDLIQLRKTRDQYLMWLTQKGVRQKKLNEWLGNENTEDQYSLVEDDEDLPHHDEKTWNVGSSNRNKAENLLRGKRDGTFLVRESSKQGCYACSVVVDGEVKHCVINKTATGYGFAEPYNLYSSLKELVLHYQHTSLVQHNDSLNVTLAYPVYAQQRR
PI3K p110 beta/p85 alpha, sequence (P42338 whole entry): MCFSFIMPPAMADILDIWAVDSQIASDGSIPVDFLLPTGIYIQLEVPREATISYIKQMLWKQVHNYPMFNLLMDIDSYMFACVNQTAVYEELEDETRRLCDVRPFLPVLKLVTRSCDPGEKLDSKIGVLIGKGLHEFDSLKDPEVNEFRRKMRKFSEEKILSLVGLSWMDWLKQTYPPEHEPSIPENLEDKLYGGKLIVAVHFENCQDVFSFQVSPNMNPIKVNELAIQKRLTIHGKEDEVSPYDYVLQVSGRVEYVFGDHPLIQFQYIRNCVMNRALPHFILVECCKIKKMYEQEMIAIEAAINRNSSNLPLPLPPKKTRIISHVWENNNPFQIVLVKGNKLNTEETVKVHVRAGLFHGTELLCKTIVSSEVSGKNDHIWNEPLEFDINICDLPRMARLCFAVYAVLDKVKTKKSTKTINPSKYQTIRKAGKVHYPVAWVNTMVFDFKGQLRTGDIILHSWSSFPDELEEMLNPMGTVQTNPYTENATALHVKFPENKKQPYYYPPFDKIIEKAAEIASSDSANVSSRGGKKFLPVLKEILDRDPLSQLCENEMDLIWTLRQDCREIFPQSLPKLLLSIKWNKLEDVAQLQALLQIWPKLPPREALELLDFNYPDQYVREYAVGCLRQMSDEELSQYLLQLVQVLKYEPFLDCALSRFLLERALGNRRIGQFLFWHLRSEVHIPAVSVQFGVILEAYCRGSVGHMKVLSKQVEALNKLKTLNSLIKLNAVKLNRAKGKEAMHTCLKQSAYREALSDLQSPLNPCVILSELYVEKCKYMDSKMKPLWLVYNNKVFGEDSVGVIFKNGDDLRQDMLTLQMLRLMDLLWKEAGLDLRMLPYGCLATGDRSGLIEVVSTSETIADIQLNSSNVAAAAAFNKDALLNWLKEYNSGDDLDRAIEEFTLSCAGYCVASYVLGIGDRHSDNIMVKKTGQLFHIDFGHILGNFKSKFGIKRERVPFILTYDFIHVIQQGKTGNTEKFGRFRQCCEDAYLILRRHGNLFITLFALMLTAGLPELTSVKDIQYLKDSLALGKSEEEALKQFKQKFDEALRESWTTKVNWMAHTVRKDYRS
Description: Inhibition of recombinant N-terminal FLAG-tagged full-length human PI3K p110beta/human p85alpha co- expressed in Sf9 insect cells using phosphatidylinositol 4,5-bisphosphate as substrate preincubated for 60 mins followed by substrate addition and measured after 1 hr in presence of ATP by ADP-Glo lipid kinase assay

CYP3A4 = CYP3A4 (Homo sapiens, UniProt P08684); assay: in vitro; conditions: liver microsomes, probe midazolam

PI3-kinase p110-alpha/p85-alpha, sequence (P27986 whole entry, canonical isoform): as the sequence (P27986 whole entry) above
PI3-kinase p110-alpha/p85-alpha, sequence (P42336 whole entry, canonical isoform): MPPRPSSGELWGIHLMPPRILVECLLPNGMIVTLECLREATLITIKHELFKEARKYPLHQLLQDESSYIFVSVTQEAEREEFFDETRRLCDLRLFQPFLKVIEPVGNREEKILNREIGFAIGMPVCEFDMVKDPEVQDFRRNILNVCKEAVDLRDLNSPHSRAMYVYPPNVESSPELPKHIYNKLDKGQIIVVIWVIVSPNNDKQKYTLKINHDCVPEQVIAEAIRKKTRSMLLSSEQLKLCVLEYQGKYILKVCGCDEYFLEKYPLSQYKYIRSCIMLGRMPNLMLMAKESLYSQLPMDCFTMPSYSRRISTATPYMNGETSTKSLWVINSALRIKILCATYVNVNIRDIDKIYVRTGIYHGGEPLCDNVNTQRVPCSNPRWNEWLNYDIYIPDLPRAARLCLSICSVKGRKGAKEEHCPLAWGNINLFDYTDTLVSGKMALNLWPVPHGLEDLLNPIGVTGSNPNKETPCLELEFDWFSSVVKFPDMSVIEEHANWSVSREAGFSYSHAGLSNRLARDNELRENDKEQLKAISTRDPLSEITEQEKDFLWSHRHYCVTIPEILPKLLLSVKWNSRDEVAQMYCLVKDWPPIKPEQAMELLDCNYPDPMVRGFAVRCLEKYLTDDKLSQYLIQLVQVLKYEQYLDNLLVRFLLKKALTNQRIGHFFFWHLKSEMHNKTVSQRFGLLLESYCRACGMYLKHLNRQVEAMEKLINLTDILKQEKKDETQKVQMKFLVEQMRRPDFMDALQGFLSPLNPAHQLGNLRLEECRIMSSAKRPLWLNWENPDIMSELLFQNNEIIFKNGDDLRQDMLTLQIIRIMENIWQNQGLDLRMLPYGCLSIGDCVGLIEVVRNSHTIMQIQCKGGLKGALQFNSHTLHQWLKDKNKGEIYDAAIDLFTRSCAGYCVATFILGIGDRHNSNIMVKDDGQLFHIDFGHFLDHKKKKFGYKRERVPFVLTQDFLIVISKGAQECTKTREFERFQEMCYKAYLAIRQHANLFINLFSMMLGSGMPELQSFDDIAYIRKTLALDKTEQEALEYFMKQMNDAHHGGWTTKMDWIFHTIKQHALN
PI3-kinase p110-delta/p85-alpha, sequence (P27986 whole entry, canonical isoform): as the sequence (P27986 whole entry) above
PI3-kinase p110-delta/p85-alpha, sequence (O00329 whole entry, canonical isoform): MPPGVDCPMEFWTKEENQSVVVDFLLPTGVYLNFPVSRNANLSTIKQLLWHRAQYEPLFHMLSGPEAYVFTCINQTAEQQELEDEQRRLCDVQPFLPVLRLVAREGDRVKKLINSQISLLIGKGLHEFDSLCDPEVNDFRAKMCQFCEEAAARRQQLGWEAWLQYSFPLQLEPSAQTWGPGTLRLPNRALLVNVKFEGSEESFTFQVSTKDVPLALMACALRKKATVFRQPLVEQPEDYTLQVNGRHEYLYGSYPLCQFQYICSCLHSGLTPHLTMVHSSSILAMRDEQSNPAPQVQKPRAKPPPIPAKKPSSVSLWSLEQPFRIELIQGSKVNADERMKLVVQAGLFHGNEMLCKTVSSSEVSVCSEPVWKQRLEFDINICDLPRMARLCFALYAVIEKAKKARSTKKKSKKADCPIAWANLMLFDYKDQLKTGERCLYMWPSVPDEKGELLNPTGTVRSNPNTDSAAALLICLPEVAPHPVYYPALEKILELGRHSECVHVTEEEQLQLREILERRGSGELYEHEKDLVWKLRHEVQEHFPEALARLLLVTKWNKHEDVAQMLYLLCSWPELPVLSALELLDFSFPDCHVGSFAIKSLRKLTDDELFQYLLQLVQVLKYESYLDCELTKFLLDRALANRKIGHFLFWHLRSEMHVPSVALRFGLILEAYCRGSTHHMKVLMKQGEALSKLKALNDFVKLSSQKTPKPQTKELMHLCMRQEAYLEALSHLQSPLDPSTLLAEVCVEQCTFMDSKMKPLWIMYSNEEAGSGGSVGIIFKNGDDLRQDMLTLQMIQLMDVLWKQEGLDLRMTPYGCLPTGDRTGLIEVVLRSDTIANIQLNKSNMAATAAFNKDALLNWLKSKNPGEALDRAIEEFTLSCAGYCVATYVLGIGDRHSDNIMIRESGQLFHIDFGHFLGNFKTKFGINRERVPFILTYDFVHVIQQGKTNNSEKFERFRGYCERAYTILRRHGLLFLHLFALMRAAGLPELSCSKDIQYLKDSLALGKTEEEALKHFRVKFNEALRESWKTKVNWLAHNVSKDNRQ
T1 sequence (P48736 whole entry, canonical isoform): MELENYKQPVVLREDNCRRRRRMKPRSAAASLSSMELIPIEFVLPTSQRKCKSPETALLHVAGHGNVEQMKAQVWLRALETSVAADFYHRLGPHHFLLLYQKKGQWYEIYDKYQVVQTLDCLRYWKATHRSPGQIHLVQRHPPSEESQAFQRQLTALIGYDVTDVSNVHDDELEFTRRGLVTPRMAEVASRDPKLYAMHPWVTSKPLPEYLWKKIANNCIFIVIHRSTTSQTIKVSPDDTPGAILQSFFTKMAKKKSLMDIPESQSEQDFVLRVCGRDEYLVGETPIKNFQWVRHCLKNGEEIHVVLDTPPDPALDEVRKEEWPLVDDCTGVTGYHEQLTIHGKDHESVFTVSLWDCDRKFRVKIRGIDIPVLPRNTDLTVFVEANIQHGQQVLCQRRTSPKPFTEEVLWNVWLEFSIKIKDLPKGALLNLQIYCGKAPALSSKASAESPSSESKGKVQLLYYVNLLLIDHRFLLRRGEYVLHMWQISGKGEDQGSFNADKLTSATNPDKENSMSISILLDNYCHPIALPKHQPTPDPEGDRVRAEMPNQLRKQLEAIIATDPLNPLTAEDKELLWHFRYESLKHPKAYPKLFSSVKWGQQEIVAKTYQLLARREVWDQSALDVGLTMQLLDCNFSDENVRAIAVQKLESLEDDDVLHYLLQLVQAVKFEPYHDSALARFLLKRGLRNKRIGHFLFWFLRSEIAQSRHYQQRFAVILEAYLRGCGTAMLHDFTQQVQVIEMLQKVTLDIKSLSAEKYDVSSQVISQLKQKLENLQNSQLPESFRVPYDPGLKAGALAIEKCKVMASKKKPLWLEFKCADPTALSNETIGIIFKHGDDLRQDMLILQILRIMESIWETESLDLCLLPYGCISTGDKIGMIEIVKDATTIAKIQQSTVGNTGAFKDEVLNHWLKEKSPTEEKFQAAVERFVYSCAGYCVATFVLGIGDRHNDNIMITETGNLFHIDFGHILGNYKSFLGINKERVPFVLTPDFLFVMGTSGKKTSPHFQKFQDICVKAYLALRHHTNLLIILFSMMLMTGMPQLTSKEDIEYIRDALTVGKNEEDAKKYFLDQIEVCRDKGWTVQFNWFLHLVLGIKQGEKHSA

IC50 [1]	IC50 [2]	IC50 [3]	IC50 [4]	Ratio IC50 (Homo sapiens)	IC50 (PI3K p110 beta/p85 alpha)	inhibition at 10 µM (CYP3A4)	Structure (SMILES)	hepatocyte CLint at 0.5 µM [5]	hepatocyte CLint [6]	clearance [7]	Vd [8]
> 10 µM	0.07 µM	> 10 µM	9.4 µM	–	–	–	Cc1cc(-c2ccc3nc(NC(=O)C(C)C)cn3n2)cc2c1C(=O)N([C@@H](C)C1CC1)C2	–	–	–	–
6.29 µM	0.031 µM	6.05 µM	0.63 µM	–	–	–	Cc1cc(-c2ccn3nc(N)c(-c4nc[nH]n4)c3n2)cc2c1C(=O)N([C@@H](C)C1CC1)C2	–	–	–	–
> 10 µM	0.05 µM	> 10 µM	3.1 µM	> 200	> 10 µM	–	Cc1cc(-c2ccn3nc(N)nc3c2)cc2c1C(=O)N([C@@H](C)C1CC1)C2	–	–	–	–
> 10 µM	0.482 µM	> 10 µM	1 µM	> 21	> 10 µM	–	CC(=O)Nc1nc2cc(-c3cc(C)c4c(c3)CN([C@@H](C)C3CC3)C4=O)ccc2[nH]1 (racemic)	–	–	–	–
> 10 µM	0.008 µM	4.55 µM	0.47 µM	–	–	–	Cc1nn(C)cc1-c1c(N)nn2ccc(-c3cc4c(c(C(F)(F)F)c3)C(=O)N([C@@H](C)C3CC3)C4)nc12	–	–	–	–
> 10 µM	0.014 µM	> 10 µM	0.69 µM	–	–	–	COCC(=O)Nc1cn2nc(-c3cc(C)c4c(c3)CN([C@@H](C)C3CC3)C4=O)ccc2n1	–	–	–	–
1.98 µM	0.044 µM	2.69 µM	0.62 µM	–	–	–	Cc1cc(-c2ccn3nc(N)c(-c4ccn[nH]4)c3n2)cc2c1C(=O)N([C@@H](C)C1CC1)C2	–	–	–	–
> 10 µM	0.291 µM	> 10 µM	15 µM	> 34	> 10 µM	–	Cc1cc(-c2ccc3nc(N)nn3c2)cc2c1C(=O)N([C@@H](C)C1CC1)C2 (racemic)	–	–	–	–
> 10 µM	0.093 µM	> 10 µM	12 µM	–	–	–	Cc1cc(-c2ccc3nc(NC(=O)c4ccccc4)cn3n2)cc2c1C(=O)N([C@@H](C)C1CC1)C2	–	–	–	–
4.14 µM	0.0091 µM	3.44 µM	0.3 µM	–	–	–	Cc1cc(-c2ccn3ncc(-c4cnn(C)c4)c3n2)cc2c1C(=O)N([C@@H](C)C1CC1)C2	–	–	–	–
0.096 µM	0.0022 µM	0.21 µM	0.21 µM	–	–	–	Cc1cc(-c2c(N)nn3ccc(-c4cc(C)c5c(c4)CN([C@@H](C)C4CC4)C5=O)nc23)ccc1C(=O)O	–	–	–	–
> 10 µM	0.0073 µM	> 10 µM	0.83 µM	–	–	–	CCC(=O)Nc1cn2nc(-c3cc(C)c4c(c3)CN([C@@H](C)C3CC3)C4=O)ccc2n1	–	–	–	–
2.26 µM	0.0059 µM	3.25 µM	0.23 µM	–	–	–	Cc1ncc(-c2c(N)nn3ccc(-c4cc(C)c5c(c4)CN([C@@H](C)C4CC4)C5=O)nc23)o1	–	–	–	–
> 10 µM	0.053 µM	> 10 µM	0.8 µM	–	–	–	C[C@@H](C1CC1)N1Cc2cc(-c3ccn4nc(N)c(-c5ncccn5)c4n3)cc(C(F)(F)F)c2C1=O	–	–	–	–
> 10 µM	5.3 µM	> 10 µM	> 30 µM	–	–	–	Cc1cc(-c2ccc3nc(NS(C)(=O)=O)cn3n2)cc2c1C(=O)N([C@@H](C)C1CC1)C2	–	–	–	–

More lines, now with the values behind:

Structure (SMILES)	IC50 [1]	IC50 [2]	IC50 [3]	IC50 [4]	Ratio IC50 (Homo sapiens)	IC50 (PI3K p110 beta/p85 alpha)	inhibition at 10 µM (CYP3A4)	hepatocyte CLint at 0.5 µM [5]	hepatocyte CLint [6]	clearance [7]	Vd [8]
Cc1cc(-c2ccn3nc(N)cc3n2)cc2c1C(=O)N([C@@H](C)C1CC1)C2	> 10 µM	0.06 µM	> 10 µM	4.2 µM	–	–	–	–	–	–	–
CC(=O)Nc1cc2nc(-c3cc(C)c4c(c3)CN([C@@H](C)C3CC3)C4=O)ccn2n1	> 10 µM	0.0044 µM	> 10 µM	0.24 µM	–	–	–	–	–	–	–
CC(C)c1cc(-c2cnn3ccc(-c4cc5c(c(C(F)(F)F)c4)C(=O)N([C@@H](C)C4CC4)C5)nc23)ccc1C(=O)O	0.194 µM	0.0021 µM	0.459 µM	0.074 µM	5520	11.6 µM	13%	< 1.2 µL/min/1e6 cells	1.7 µL/min/1e6 cells	86.7 mL/min/kg	25 L/kg
Cc1cc(-c2ccn3nc(N)c(-c4cnn(CCO)c4)c3n2)cc2c1C(=O)N([C@@H](C)C1CC1)C2	1.16 µM	0.0064 µM	1.16 µM	0.4 µM	–	–	–	–	–	–	–
CNS(=O)(=O)c1cc(-c2ccn3nc(NC(C)=O)cc3n2)cc2c1C(=O)N([C@@H](C)C1CC1)C2	9.85 µM	0.0027 µM	4.55 µM	0.24 µM	–	–	–	–	–	–	–
CC(=O)Nc1cc2nc(-c3cc4c(c(NS(C)(=O)=O)c3)C(=O)N([C@@H](C)C3CC3)C4)ccn2n1	8.97 µM	0.0013 µM	6.14 µM	0.16 µM	–	–	–	–	–	–	–
Cc1cc(-c2ccc3nc(N)c(-c4cnn(C)c4)n3n2)cc2c1C(=O)N([C@@H](C)C1CC1)C2	> 10 µM	0.017 µM	> 10 µM	0.49 µM	–	–	–	–	–	–	–
Cc1cc(-c2ccn3nc(N)c(-c4ccccn4)c3n2)cc2c1C(=O)N([C@@H](C)C1CC1)C2	> 10 µM	0.064 µM	> 10 µM	2.3 µM	–	–	–	–	–	–	–
CC(C)c1cc(-c2c(N)nn3ccc(-c4cc5c(c(C(F)(F)F)c4)C(=O)N([C@@H](C)C4CC4)C5)nc23)ccc1C(=O)O	0.0824 µM	0.001 µM	0.125 µM	0.076 µM	10100	10.1 µM	–	–	–	–	–
Cc1cc(-c2ccc3ncc(-c4cnn(C)c4)n3n2)cc2c1C(=O)N([C@@H](C)C1CC1)C2	> 10 µM	0.015 µM	2.38 µM	0.44 µM	–	–	–	–	–	–	–
CC(=O)Nc1cc2nc(-c3cc4c(c(C(F)(F)F)c3)C(=O)N([C@@H](C)C3CC3)C4)ccn2n1	8.34 µM	0.0022 µM	2.61 µM	0.15 µM	–	–	–	2.4 µL/min/1e6 cells	< 1.2 µL/min/1e6 cells	–	–
CC(=O)Nc1cn2nc(-c3cc(C)c4c(c3)CN([C@@H](C)C3CC3)C4=O)ccc2n1	> 10 µM	0.0055 µM	> 10 µM	0.45 µM	> 1820	> 10 µM	–	–	–	–	–
Cc1cc(-c2ccc3[nH]c(N)nc3c2)cc2c1C(=O)N([C@@H](C)C1CC1)C2 (racemic)	> 10 µM	> 10 µM	> 10 µM	–	–	> 10 µM	–	–	–	–	–
CC(=O)Nc1nc2ccc(-c3cc(C)c4c(c3)CN([C@@H](C)C3CC3)C4=O)cn2n1 (racemic)	> 10 µM	0.076 µM	> 10 µM	3 µM	> 131	> 10 µM	–	–	–	–	–
C[C@@H](C1CC1)N1Cc2cc(-c3ccn4nc(N)c(-c5cnn(C)c5)c4n3)cc(C(F)(F)F)c2C1=O	1.94 µM	0.0019 µM	1.31 µM	0.064 µM	–	> 15 µM	–	3.3 µL/min/1e6 cells	7.4 µL/min/1e6 cells	13 mL/min/kg	1.2 L/kg
Cc1cc(-c2ccn3nc(N)c(-c4ccc(CC(=O)O)cc4)c3n2)cc2c1C(=O)N([C@@H](C)C1CC1)C2	5.45 µM	0.0021 µM	4.66 µM	0.87 µM	–	–	–	–	–	–	–
Cc1cc(-c2ccc3nc(NC(=O)N4CCC[C@H]4C(N)=O)cn3n2)cc2c1C(=O)N([C@@H](C)C1CC1)C2	2.47 µM	0.0029 µM	8.21 µM	0.46 µM	–	–	–	–	–	–	–
Cc1cc(-c2ccn3nc(N)c(-c4ccncn4)c3n2)cc2c1C(=O)N([C@@H](C)C1CC1)C2	2.73 µM	0.0075 µM	2.2 µM	0.55 µM	–	–	–	–	–	–	–
Cc1cc(-c2ccc3nc(N)cn3n2)cc2c1C(=O)N([C@@H](C)C1CC1)C2 (racemic)	> 10 µM	0.425 µM	> 10 µM	1.5 µM	> 24	> 10 µM	–	–	–	–	–
Cc1c(-c2c(N)nn3ccc(-c4cc5c(c(C(F)(F)F)c4)C(=O)N([C@@H](C)C4CC4)C5)nc23)cnn1C	1.51 µM	0.0066 µM	2.24 µM	0.44 µM	–	–	–	–	–	–	–
CC(=O)Nc1nn2ccc(-c3cc(C)c4c(c3)CN([C@@H](C)C3CC3)C4=O)nc2c1-c1cnn(C)c1	> 10 µM	0.429 µM	> 10 µM	1.5 µM	–	–	–	–	–	–	–
